19 molecules from ChEMBL document CHEMBL3393039, “Anthranilic acid derivatives as nuclear receptor modulators--development of novel PPAR selective and dual PPAR/FXR ligands” (Bioorg Med Chem, 2015) can be followed below.

For assay [1], the target named is T1, Peroxisome proliferator-activated receptor delta (Homo sapiens) (UniProt Q03181).
T1 sequence (whole entry): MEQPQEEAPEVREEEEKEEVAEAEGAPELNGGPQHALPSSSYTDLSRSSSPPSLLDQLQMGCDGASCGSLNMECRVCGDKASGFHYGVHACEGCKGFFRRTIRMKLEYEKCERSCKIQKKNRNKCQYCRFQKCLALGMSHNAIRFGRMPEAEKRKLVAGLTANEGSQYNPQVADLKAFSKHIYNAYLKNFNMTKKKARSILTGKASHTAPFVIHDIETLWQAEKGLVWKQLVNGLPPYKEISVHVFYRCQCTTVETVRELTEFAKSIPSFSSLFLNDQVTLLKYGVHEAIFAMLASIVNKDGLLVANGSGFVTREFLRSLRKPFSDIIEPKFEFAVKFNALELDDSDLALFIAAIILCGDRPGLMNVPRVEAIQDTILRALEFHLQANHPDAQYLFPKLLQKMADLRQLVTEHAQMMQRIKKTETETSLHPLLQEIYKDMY
Kind of assay: Transactivation of Gal4-tagged PPARdelta ligand binding domain (unknown origin) expressed in COS7 cells measured after overnight incubation by luciferase reporter gene assay relative to L165,041. Conditions: Chlorocebus aethiops; COS-7. The format is cell-based.

The target in assay [2] is T2, Peroxisome proliferator-activated receptor alpha (Homo sapiens, UniProt Q07869).
T2 sequence (Q07869 whole entry): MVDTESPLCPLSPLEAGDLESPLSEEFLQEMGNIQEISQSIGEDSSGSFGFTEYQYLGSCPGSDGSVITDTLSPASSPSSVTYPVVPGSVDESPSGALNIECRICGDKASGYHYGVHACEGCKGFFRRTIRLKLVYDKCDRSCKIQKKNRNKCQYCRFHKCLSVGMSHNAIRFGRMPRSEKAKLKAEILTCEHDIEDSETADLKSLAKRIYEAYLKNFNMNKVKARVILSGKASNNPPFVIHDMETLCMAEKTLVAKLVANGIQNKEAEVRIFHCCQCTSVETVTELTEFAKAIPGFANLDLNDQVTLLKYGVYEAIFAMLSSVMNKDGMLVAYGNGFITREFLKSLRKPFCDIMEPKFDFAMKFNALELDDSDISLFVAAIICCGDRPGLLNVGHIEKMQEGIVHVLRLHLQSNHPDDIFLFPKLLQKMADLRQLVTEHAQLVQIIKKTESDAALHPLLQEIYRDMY
Kind of assay: Transactivation of Gal4-tagged PPARalpha ligand binding domain (unknown origin) expressed in COS7 cells measured after overnight incubation by luciferase reporter gene assay. The format is cell-based, COS-7. (In general: Reporter assays use an easily measured gene product as a stand-in for the process of interest.)

For assay [3], the target named is T3, Bile acid receptor (Homo sapiens) (UniProt Q96RI1).
T3 sequence (whole entry): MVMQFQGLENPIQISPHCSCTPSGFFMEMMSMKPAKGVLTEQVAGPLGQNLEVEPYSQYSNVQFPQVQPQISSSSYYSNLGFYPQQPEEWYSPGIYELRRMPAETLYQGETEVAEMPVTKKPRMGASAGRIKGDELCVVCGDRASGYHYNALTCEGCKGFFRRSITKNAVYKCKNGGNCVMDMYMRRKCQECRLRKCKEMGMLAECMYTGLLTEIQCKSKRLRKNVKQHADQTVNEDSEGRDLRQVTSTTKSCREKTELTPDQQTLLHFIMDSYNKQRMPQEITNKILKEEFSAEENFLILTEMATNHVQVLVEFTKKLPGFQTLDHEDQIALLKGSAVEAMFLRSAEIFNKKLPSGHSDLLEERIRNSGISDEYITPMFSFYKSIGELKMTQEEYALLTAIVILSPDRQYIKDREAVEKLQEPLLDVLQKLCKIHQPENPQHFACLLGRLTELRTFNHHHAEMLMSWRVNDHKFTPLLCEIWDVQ
Kind of assay: Transactivation of human FXR expressed in human HeLa cells incubated for 24 hrs by luciferase reporter gene assay relative to GW4064. The format is cell-based.

Assay [4] has as its target T4, Peroxisome proliferator-activated receptor gamma (Homo sapiens) (UniProt P37231).
T4 sequence (whole entry): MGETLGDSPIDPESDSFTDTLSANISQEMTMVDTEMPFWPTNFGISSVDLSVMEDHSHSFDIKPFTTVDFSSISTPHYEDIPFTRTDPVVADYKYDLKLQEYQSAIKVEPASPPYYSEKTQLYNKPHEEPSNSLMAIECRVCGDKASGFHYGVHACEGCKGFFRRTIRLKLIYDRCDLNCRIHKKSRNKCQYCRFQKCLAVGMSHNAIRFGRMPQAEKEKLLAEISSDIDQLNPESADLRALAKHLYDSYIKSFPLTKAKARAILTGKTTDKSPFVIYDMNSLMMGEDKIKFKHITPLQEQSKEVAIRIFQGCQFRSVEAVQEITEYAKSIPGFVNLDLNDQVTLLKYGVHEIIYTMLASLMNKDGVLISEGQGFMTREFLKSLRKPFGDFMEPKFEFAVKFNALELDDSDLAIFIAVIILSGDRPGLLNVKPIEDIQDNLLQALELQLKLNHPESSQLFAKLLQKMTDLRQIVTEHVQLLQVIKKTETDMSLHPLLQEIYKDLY
Kind of assay: Transactivation of Gal4-tagged PPARgamma ligand binding domain (unknown origin) expressed in COS7 cells measured after overnight incubation by luciferase reporter gene assay relative to piaglitazone. It is filed as cell-based. Conditions: Chlorocebus aethiops; COS-7.

The target in the next assay is T5, Bile acid receptor (Homo sapiens, UniProt Q96RI1).
T5 sequence (Q96RI1 whole entry): T3 sequence (whole entry)
Kind of assay: Transactivation of human FXR expressed in human HeLa cells incubated for 24 hrs by luciferase reporter gene assay. The format is cell-based.

Assay [5] has as its target T6, Peroxisome proliferator-activated receptor delta (Homo sapiens, UniProt Q03181).
T6 sequence (Q03181 whole entry): T1 sequence (whole entry)
Kind of assay: Transactivation of Gal4-tagged PPARdelta ligand binding domain (unknown origin) expressed in COS7 cells measured after overnight incubation by luciferase reporter gene assay. It is filed as cell-based, COS-7.

Assay [6] has as its target T7, Peroxisome proliferator-activated receptor gamma (Homo sapiens, UniProt P37231).
T7 sequence (P37231 whole entry): T4 sequence (whole entry)
Kind of assay: Transactivation of Gal4-tagged PPARgamma ligand binding domain (unknown origin) expressed in COS7 cells measured after overnight incubation by luciferase reporter gene assay. The format is cell-based, COS-7.

Assay [7] addresses T1, Peroxisome proliferator-activated receptor delta (Homo sapiens). Kind of assay: Transactivation of Gal4-tagged PPARdelta ligand binding domain (unknown origin) expressed in COS7 cells at 30 uM measured after overnight incubation by luciferase reporter gene assay. It is filed as cell-based. Conditions: COS-7.
The target of assay [8] is T8, Peroxisome proliferator-activated receptor alpha (Homo sapiens) (UniProt Q07869).
T8 sequence (whole entry): T2 sequence (Q07869 whole entry)
Kind of assay: Transactivation of Gal4-tagged PPARalpha ligand binding domain (unknown origin) expressed in COS7 cells at 10 uM measured after overnight incubation by luciferase reporter gene assay. The format is cell-based. Conditions: COS-7.

The target of assay [9] is T3, Bile acid receptor (Homo sapiens). Kind of assay: Transactivation of human FXR expressed in human HeLa cells at 30 uM incubated for 24 hrs by luciferase reporter gene assay. The format is cell-based.
In assay [10] the target is T4, Peroxisome proliferator-activated receptor gamma (Homo sapiens). Kind of assay: Transactivation of Gal4-tagged PPARgamma ligand binding domain (unknown origin) expressed in COS7 cells at 30 uM measured after overnight incubation by luciferase reporter gene assay. Conditions: COS-7. It is filed as cell-based.
Assay [11] concerns the target T8, Peroxisome proliferator-activated receptor alpha (Homo sapiens). Kind of assay: Transactivation of Gal4-tagged PPARalpha ligand binding domain (unknown origin) expressed in COS7 cells at 30 uM measured after overnight incubation by luciferase reporter gene assay. The format is cell-based. Conditions: COS-7.

The structures appear in SMILES notation. pEC50: −log10 of the molar value. Calls of active or inactive are those of the source. The calls are words filed in the database; no cut-off is given here.

A word on the pEC50: it is the EC50 on a negative log10 scale, so that one unit is a factor of ten. Higher therefore signals a small EC50. In the case of `CSc1ccc(C(=O)Nc2ccccc2C(=O)Nc2cccc(CC(=O)O)c2)cc1`, the max activation in assay [1] worked out at 133%; in [3], 16.9%; in assay [4], 200%. Further, the negative-log EC50 (pEC50) in assay [2] was 4.84; on Bile acid receptor, 5.07; in assay [5], 5.13; in assay [6], 4.76.

Consider `O=C(O)CCCNC(=O)c1ccccc1NC(=O)c1cccc2ccccc12`, for which the max activation in assay [4] turned out to be 397%; in assay [8] it was 12%. The outcome in assay [7] and in [9] was inactive. The molecule further showed a negative-log EC50 (pEC50) in assay [6] of 4.39.

`O=C(O)c1cccc(NC(=O)c2ccc(Cl)cc2NC(=O)c2ccc(C(F)(F)F)cc2)c1`: the figures for the max activation in assay [1], in assay [3] and in assay [4] were 16.5%, 17.8% and 420%, respectively. In addition, the pEC50 was 4.73 in assay [2], 5.68 at Bile acid receptor, 5.47 in assay [5] and 5.06 in [6].

For `O=C(O)Cc1cccc(NC(=O)c2ccccc2NC(=O)c2ccc(C(F)(F)F)cc2)c1`, the max activation came out at 58% in [1], 14.8% in [3] and 161% in assay [4]. The negative logarithm of the EC50 (pEC50) in [2] was 5.27; at Bile acid receptor, 5.59; in [5], 5.66; in assay [6] it was 5.03.

For `CN(CCCC(=O)O)C(=O)c1ccccc1NC(=O)c1ccc2ccccc2c1`, the result in [7], in assay [10], in assay [11] and in [9] was inactive.

For `N#Cc1ccc(C(=O)Nc2ccccc2C(=O)Nc2cccc(CC(=O)O)c2)cc1`, the outcome in assay [7], in [10], in assay [11] and in assay [9] was inactive.

As to `COc1ccc(C(=O)Nc2ccccc2C(=O)Nc2cccc(CC(=O)O)c2)cc1OC`, the outcome in assay [7], in assay [10], in assay [11] and in assay [9] was inactive.

On to `O=C(O)CCc1cccc(NC(=O)c2ccccc2NC(=O)c2ccc(C(F)(F)F)cc2)c1`, for which the figures for the max activation in [1], in assay [3] and in assay [4] were 120%, 13% and 70%, respectively. Besides, the pEC50 in assay [2] is 5.23; at Bile acid receptor, 5.64; in [5] it was 5.17; in [6], 5.16.

For the molecule `CN(C(=O)c1ccc2ccccc2c1)c1ccccc1C(=O)NCCCC(=O)O`, the result in assay [7], in [10], in assay [11] and in assay [9] was inactive.

As to `CC(C)(C)c1ccc(C(=O)Nc2ccccc2C(=O)Nc2cccc(C(N)=O)c2)cc1`, in assay [3], the max activation was found to be 15%. The outcome in [7], in assay [10] and in assay [11] was inactive. The molecule also showed a pEC50 on Bile acid receptor of 7.15.

On to `CC(C)(C)c1ccc(C(=O)Nc2cccc(Cl)c2C(=O)Nc2cccc(C(=O)O)c2)cc1`, for which the result in [7], in [10], in [11] and in assay [9] was inactive.

Take `CC(C)(C)c1ccc(C(=O)Nc2ccccc2C(=O)Nc2cc(C(=O)O)ccc2F)cc1`: the figures for the max activation in assay [3], in assay [4] and in assay [8] were 12%, 735% and 17%, respectively. In assay [7], the result was inactive. In [6], this molecule had a pEC50 of 5.24.

For the molecule `O=C(O)Cc1cccc(NC(=O)c2ccccc2NC(=O)c2ccc(SC(F)(F)F)cc2)c1`, the values for the max activation in assay [1], in assay [3] and in assay [4] were 64%, 23% and 158%, respectively. For the same molecule, the pEC50 in assay [2] was 5.89; on Bile acid receptor it was 5.15; in [5] it was 5.64; in assay [6], 5.36.

For `O=C(O)c1cccc(NC(=O)c2cc(Cl)ccc2NC(=O)c2ccc(C(F)(F)F)cc2)c1`, the max activation in [1] was 24%; in assay [3] it was 16.9%; in assay [4] it was 415%; in [8] it was 25%. Besides, the negative logarithm of the EC50 (pEC50) on Bile acid receptor was 5.47; in assay [5], 5.20; in [6], 5.33.

Regarding `CC(C)(C)c1ccc(C(=O)Nc2ccccc2C(=O)Nc2cccc(CCC(=O)O)c2)cc1`, the negative-log EC50 (pEC50) is 5.27 in assay [2], 7.22 on Bile acid receptor and 5.30 in assay [6]. Besides, the max activation in assay [3] was determined as 22%; in assay [4], 175%. The result in assay [7] was inactive.

As for `O=C(O)c1cccc(NC(=O)c2c(Cl)cccc2NC(=O)c2ccc(C(F)(F)F)cc2)c1`, the outcome in [7], in assay [10], in [11] and in assay [9] was inactive.

Regarding `O=C(O)CCCNC(=O)c1ccccc1NC(=O)C(c1ccccc1)c1ccccc1`, the result in assay [7], in [10], in assay [11] and in assay [9] was inactive.

`CC(C)(C)c1ccc(C(=O)Nc2ccccc2C(=O)Nc2cc(C(=O)O)ccc2Cl)cc1`: the max activation in assay [3] worked out at 16%; in assay [4] it was 154%; in assay [8], 16%. Besides, the result in [7] was inactive. This molecule gave a negative logarithm of the EC50 (pEC50) in assay [6] of 5.72.

Consider `O=C(O)c1cccc(NC(=O)c2ccccc2NC(=O)c2cc(C(F)(F)F)cc(C(F)(F)F)c2)c1`, for which the max activation in assay [4] worked out at 114%; in assay [8], 15%. Moreover, the outcome in [7] and in assay [9] was inactive. Further, the negative logarithm of the EC50 (pEC50) in assay [6] is 4.96.
